This is an account of results in patent US10550115B2, “1, 4, 8-triazaphenanthrene derivatives for the treatment of neurodegenerative disorders” (Institut Du Cerveau et de la Moëlle Epiniere, priority 2015, dated 2020).

Where only a bound is given, the exact number is not on record here.

In data set [1] the test system is dopaminergic (TH+) neurons derived from primary cultures of embryonic ventral mesencephalon. In words: Spontaneous degeneration of dopaminergic neurons in primary cultures of embryonic ventral mesencephalon, TH+ neuron count at DIV 10. Type of data set: cell-based. As to conditions: for viability at 0.1 µM / viability at 1 µM / viability at 10 µM: Neuron, 240 h, read-out: TH+ neurons, % relative to the control ± standard error; for Neuroprotective activity, in words: survival percentage at 10 μM almost equal to that induced by db-cAMP at 1 mM. On the procedure:
The compounds of the invention were tested in a model of spontaneous degeneration of dopaminergic neurons derived from primary cultures of embryonic ventral mesencephalon according to the protocol described in the article by S. Guerreiro et a1. (2008). The primary cultures of embryonic ventral mesencephalon thus obtained are mixed cultures containing about 50% neuronal cells and 50% glial cells. Among the neuronal cells, dopaminergic neurons make up 3% of the total neurons, most of the neurons derived from these cultures being GABAergic. Concerning the glial cells, they mainly consist of astrocytes (>95% of the glial cells). These cultures are characterized by spontaneous, progressive and selective death of dopaminergic neurons as a result of a mechanism involving immature astrocytes and calcium dyshomeostasis (E. Rousseau et a1. (2013), D. Toulorge et a1. (2011)). The neuroprotective effect of the compounds of the invention was evaluated by counting dopaminergic (TH^+) neurons stained by tyrosine hydroxylase (TH) immunohistochemistry after 10 days of culture (DIV 10).

The nature of data set [2]: In vivo study of BBB crossing, HPLC-MS/MS of plasma and brain after IV injection. The arrangement: species or system CD-1 mice. The method, then: The goal of this study is to confirm, by HPLC coupled to mass spectrometry, the presence of compound Iac in the brain parenchyma after sub-chronic intravenous treatment in mice.
The study is performed with CD-1 mice.
A 0.5 mg/mL solution of compound Iac is prepared in physiological saline containing 10% Cremophor EL®. The same dose of this solution is administered intravenously to 6 mice (2 μL/g).
After 5 min, 3 mice are sacrificed. After 30 min, the other 3 mice are sacrificed.
Blood is drawn, and the plasma is separated by centrifugation. The brain is harvested after intracardiac perfusion. The samples are frozen and stored at −80° C. before treatment.
Plasma: 400 μL of each plasma sample is mixed with 1 mL of acetonitrile to precipitate proteins and extract compound Iac.
Brain: Each brain is ground in 400 μL of physiological saline. 800 μL of acetonitrile is added in order to extract compound Iac.
The treated samples are vortexed for 3 minutes and then placed in a sonicator again for 3 minutes. The precipitated proteins and the solid residues are sedimented by centrifugation (15,000 g, 5 minutes at 4° C.). The supernatants are transferred to a microplate to be analysed by HPLC-MS/MS.
Samples are analysed with the method described below, with detection and quantification, based on peak area, being performed by HPLC-MS/MS in MRM mode.
For the calculation of log [brain]/[plasma] to determine blood-brain barrier crossing, the mean plasma volume of a mouse is evaluated at 1.5 mL.

The subject of data set [3] is dopaminergic neurons of the substantia nigra. Description: MPTP mouse model of Parkinson's disease: survival of TH+ dopaminergic neurons in the substantia nigra. Type of data set: in vivo. The note with it: MPTP/Iac mice. The method, then:
(§1) The potential neuroprotective effects of Iac were evaluated by measuring striatum dopamine levels and dopamine turnover in the mouse model of Parkinson's disease treated with MPTP (1-methyl-4-phenyl-1,2,3,6-tetrahydropyridine), and by evaluating the number of dopaminergic neurons saved in the substantia nigra. Mice were treated with Iac (50 and 100 mg/kg, p.o., in 1% carboxymethyl cellulose and 0.5% Tween 80) for 11 consecutive days. MPTP (20 mg/kg; intraperitoneal route), or saline solution for the controls, was administered on treatment days 4 to 8. All mice were killed on day 12 following final administration of the treatment, then the striatal tissue was dissected for analysis. The effect of MPTP treatment on striatum dopamine depletion was analysed by high-pressure liquid chromatography (HPLC) in combination with electrochemical detection for measurement of levels of dopamine monoamine (DA), 3,4-dihydroxyphenylacetic acid (DOPAC), and homovanillic acid (HVA).
At the dose of 2×25 mg/kg/d (par os), the near-total survival of TH^+ neurons was observed. Indeed, in the group of mice treated with MPTP/Iac, survival was measured at 93±4% relative to the controls.

Another data set in a line: Aqueous solubility. Format: physicochemical. The note with it: aqueous medium (not further specified).
In data set [4] the test system is mouse model of Parkinson's disease treated with MPTP. Description: MPTP mouse model of Parkinson's disease: striatum dopamine levels and dopamine turnover (HPLC, electrochemical detection). Format: in vivo. The note with it: MPTP mice. On the procedure:
as §1

The mark [5] stands for this setting: 50 mg/kg p.o., 11 consecutive days.
Setting [6] is: 100 mg/kg p.o., 11 consecutive days.

For the molecule `Clc1cnc2ccc3ncccc3c2n1` [Iad], in data set [1], the viability at 0.1 µM worked out at 27.4 ± 1.6%, the viability at 1 µM amounted to 26.5 ± 1.6% and the viability at 10 µM is 33.8 ± 1.8%.
Consider `C#Cc1cnc2ccc3ncccc3c2n1` [Iak], for which, in data set [1], the viability at 0.1 µM amounted to 38.2 ± 2.1%, the viability at 1 µM turned out to be 40.7 ± 2.6% and the viability at 10 µM was 7 ± 1.3%.
`Fc1ccc(-c2cnc3ccc4ncccc4c3n2)cc1` [Iah]: in data set [1], the viability at 0.1 µM worked out at 24.4 ± 1.4%, the viability at 1 µM was determined as 32.8 ± 1.8% and the viability at 10 µM came out at 42.8 ± 2.2%.
A word on the solubility: it is the concentration that dissolves in the medium under given conditions. Low readings indicate a poorly soluble substance, high ones a readily soluble substance. In the case of `c1ccc(-c2cnc3ccc4ncccc4c3n2)cc1` [Iac, 3-phenyl-1,4,8-triazaphenanthrene], in data set [2] (5 min after IV injection of 1 mg/kg, mice), the “Amount (nmol/brain)” value came out at 5.19 ± 0.25 nmol/brain. The “Amount (nmol/brain)” value in data set [2] (30 min after IV injection of 1 mg/kg, mice) turned out to be 0.50 ± 0.07 nmol/brain. In data set [2] (CD-1, brain and plasma, 5 min after IV injection of 1 mg/kg, mean plasma volume of a mouse evaluated at 1.5 mL, read-out: Log [brain]/[plasma]), the Kp at 5 min worked out at 0.15 ± 0.05. In data set [2] (CD-1, brain and plasma, 30 min after IV injection of 1 mg/kg, mean plasma volume of a mouse evaluated at 1.5 mL, read-out: Log [brain]/[plasma]), the Kp at 30 min is 0.02 ± 0.1. Also, the concentration at 5 min in data set [2] (CD-1, mouse, plasma, 5 min after IV injection of 1 mg/kg, mice) is 2470 ± 240 nM. The concentration at 30 min in data set [2] (CD-1, mouse, plasma, 30 min after IV injection of 1 mg/kg, mice) came to 320 ± 50 nM. Further, the “Blood-brain barrier crossing in vivo, in words” value in data set [2] (after intravenous administration) is “able to cross the BBB”. For the same molecule, the “Survival of TH+ neurons relative to the controls” value in data set [3] (2×25 mg/kg/d per os) is reported as 93±4%. Further, in data set [3] (2×50 mg/kg/d per os), the “Dopaminergic neuron survival relative to the controls” value was found to be 81±4%. The molecule further showed a solubility in “Aqueous solubility” of less than 10 µg/mL. Besides, in data set [1], the viability at 0.1 µM was 46.6 ± 2.8%; the viability at 1 µM came out at 64.7 ± 2.9%; the viability at 10 µM is 91 ± 3.7%; the “Neuroprotective activity, in words” value was “particularly high activity”. Also, in data set [1] (in vitro), the “Activity (concentration showing neuroprotective activity in vitro)” value came to 1 µM and the “Concentration for optimal neuroprotective activity” value stood at 10 µM. Also, in data set [4] (setting [5]), the “Decrease in the (DOPAC+HVA)/DA ratio” value is on record as 30% and the “Increase of striatum DA levels” value amounted to 64%. Also, in data set [4] (setting [6]), the “Decrease in the (DOPAC+HVA)/DA ratio” value worked out at 28%, the “Increase of striatum DA levels” value was determined as 78% and the “Increase of striatum HVA levels” value came out at 25%. Besides, the “Effect on DOPAC levels” value in data set [4] (50 and 100 mg/kg p.o.) is given as “no significant effect”.
With `Cc1nc2ccc3ncccc3c2nc1-c1ccc2ccccc2c1` [Ibj], in data set [1], the viability at 0.1 µM was 58.1 ± 2.8%, the viability at 1 µM worked out at 59.2 ± 2.2% and the viability at 10 µM was determined as 67.3 ± 2.5%.
Regarding `c1ccc2ncc(-c3cnc4ccc5ncccc5c4n3)cc2c1` [Iam], in data set [1], the viability at 0.1 µM amounted to 27.6 ± 2%; the viability at 1 µM is 46.7 ± 2.7%; the viability at 10 µM came to 97.3 ± 3.6%; the “Neuroprotective activity, in words” value was “particularly high activity”.
For `COc1cc(-c2cnc3ccc4ncccc4c3n2)cc(OC)c1OC` [Iaf], in data set [1], the viability at 0.1 µM came out at 27.7 ± 1.6%, the viability at 1 µM is 46.8 ± 2.3% and the viability at 10 µM came to 70.8 ± 3.5%.
`c1cncc(-c2cnc3ccc4ncccc4c3n2)c1` [Iag]: in data set [1], the viability at 0.1 µM amounted to 31.4 ± 1.7%; the viability at 1 µM came out at 48.3 ± 2.4%; the viability at 10 µM was 96.6 ± 4.5%; the “Neuroprotective activity, in words” value is listed as “particularly high activity”.
The like results for `Oc1cccc(-c2cnc3ccc4ncccc4c3n2)c1` [Iae] were, in that order, 24.7 ± 1.6%, 47.7 ± 2.6%, 99.3 ± 4.4% and “particularly high activity”.
Taken in the same sequence, the figures for `c1ccc2cc(-c3cnc4ccc5ncccc5c4n3)ccc2c1` [Iaj] were 28.9 ± 1.8%, 42.8 ± 2.1%, 94.9 ± 3.5% and “particularly high activity”.
Take `c1cnc2ccc3nccnc3c2c1` [Iaa]: in data set [1], the viability at 0.1 µM worked out at 25.7 ± 1.6%, the viability at 1 µM stood at 26.2 ± 1.7% and the viability at 10 µM was 30.6 ± 2.3%.
